Data published in the NIST ThermoML archive (doi:10.1016/j.fluid.2018.08.017).

Test: wn = mass fraction of the nth substance listed
Conditions: 101 kPa, Liquid; for speed of sound: Single path-length method; for mass density: Vibrating tube method

CN1CCCC1=O [N-methylpyrrolidone] + CCCCn1cc[n+](C)c1.F[B-](F)(F)F
Conditions | mass density [kg/m3] | speed of sound [m/s] | viscosity [mPa·s]
293.15 K, w2 = 0 | 1034.1 | 1565.7 | 1.786
293.15 K, w2 = 0.0986 | 1052.7 | 1579.2 | 2.568
293.15 K, w2 = 0.2498 | 1077.9 | 1582 | 3.938
293.15 K, w2 = 0.4971 | 1119.5 | 1585.5 | 9.374
293.15 K, w2 = 0.7413 | 1160.6 | 1580.1 | 27.49
298.15 K, w2 = 0 | 1029.7 | 1546.1 | 1.693
298.15 K, w2 = 0.0986 | 1048.4 | 1560.5 | 2.33
298.15 K, w2 = 0.2498 | 1073.7 | 1564.5 | 3.528
298.15 K, w2 = 0.4971 | 1115.5 | 1570.1 | 8.144
298.15 K, w2 = 0.7413 | 1156.8 | 1566.6 | 22.73
303.15 K, w2 = 0 | 1025.2 | 1526.7 | 1.564
303.15 K, w2 = 0.0986 | 1044 | 1541.8 | 2.129
303.15 K, w2 = 0.2498 | 1069.5 | 1546.8 | 3.18
303.15 K, w2 = 0.4971 | 1111.5 | 1554.5 | 7.116
303.15 K, w2 = 0.7413 | 1153 | 1552.8 | 19.07
308.15 K, w2 = 0 | 1020.8 | 1507.5 | 1.448
308.15 K, w2 = 0.0986 | 1039.7 | 1523.2 | 1.953
308.15 K, w2 = 0.2498 | 1065.4 | 1529.4 | 2.884
308.15 K, w2 = 0.4971 | 1107.5 | 1539 | 6.257
308.15 K, w2 = 0.7413 | 1149.2 | 1539.2 | 16.26
313.15 K, w2 = 0 | 1016.3 | 1488.3 | 1.346
313.15 K, w2 = 0.0986 | 1035.4 | 1504.8 | 1.798
313.15 K, w2 = 0.2498 | 1061.2 | 1512 | 2.627
313.15 K, w2 = 0.4971 | 1103.5 | 1523.7 | 5.544
313.15 K, w2 = 0.7413 | 1145.4 | 1525.6 | 13.88
318.15 K, w2 = 0 | 1011.9 | 1469.2 | –
318.15 K, w2 = 0.0986 | 1031 | 1486.6 | –
318.15 K, w2 = 0.2498 | – | 1494.8 | –
318.15 K, w2 = 0.4971 | – | 1508.4 | –
318.15 K, w2 = 0.7413 | – | 1512.2 | –
